Tests used:
[1] = molecular target: Serine/threonine-protein kinase PLK1 (Homo sapiens) (UniProt P53350); experiment: Inhibition of human PLK1 assessed as residual activity at 1 uM relative to control
[2] = molecular target: RAC-alpha serine/threonine-protein kinase (Homo sapiens) (UniProt P31749); experiment: Inhibition of human PKBalpha assessed as residual activity at 10 uM relative to control
[3] = molecular target: Serine/threonine-protein kinase PAK 4 (Homo sapiens) (UniProt O96013); experiment: Inhibition of human PAK4 assessed as residual activity at 10 uM relative to control
[4] = molecular target: Insulin receptor (Homo sapiens) (UniProt P06213); experiment: Inhibition of human IR assessed as residual activity at 10 uM relative to control
[5] = molecular target: Fibroblast growth factor receptor 1 (Homo sapiens, UniProt P11362); experiment: Inhibition of human FGFR1 assessed as residual activity at 10 uM relative to control
[6] = molecular target: Calcium/calmodulin-dependent protein kinase type 1 (Homo sapiens) (UniProt Q14012); experiment: Inhibition of human CAMK1 assessed as residual activity at 10 uM relative to control
[7] = molecular target: Aurora kinase B (Homo sapiens) (UniProt Q96GD4); experiment: Inhibition of human Aurora-B assessed as residual activity at 10 uM relative to control
[8] = molecular target: T1, Serine/threonine-protein kinase D1 (Homo sapiens) (UniProt Q15139); experiment: Inhibition of human PKD1 assessed as residual activity at 1 uM relative to control
T1 sequence (whole entry): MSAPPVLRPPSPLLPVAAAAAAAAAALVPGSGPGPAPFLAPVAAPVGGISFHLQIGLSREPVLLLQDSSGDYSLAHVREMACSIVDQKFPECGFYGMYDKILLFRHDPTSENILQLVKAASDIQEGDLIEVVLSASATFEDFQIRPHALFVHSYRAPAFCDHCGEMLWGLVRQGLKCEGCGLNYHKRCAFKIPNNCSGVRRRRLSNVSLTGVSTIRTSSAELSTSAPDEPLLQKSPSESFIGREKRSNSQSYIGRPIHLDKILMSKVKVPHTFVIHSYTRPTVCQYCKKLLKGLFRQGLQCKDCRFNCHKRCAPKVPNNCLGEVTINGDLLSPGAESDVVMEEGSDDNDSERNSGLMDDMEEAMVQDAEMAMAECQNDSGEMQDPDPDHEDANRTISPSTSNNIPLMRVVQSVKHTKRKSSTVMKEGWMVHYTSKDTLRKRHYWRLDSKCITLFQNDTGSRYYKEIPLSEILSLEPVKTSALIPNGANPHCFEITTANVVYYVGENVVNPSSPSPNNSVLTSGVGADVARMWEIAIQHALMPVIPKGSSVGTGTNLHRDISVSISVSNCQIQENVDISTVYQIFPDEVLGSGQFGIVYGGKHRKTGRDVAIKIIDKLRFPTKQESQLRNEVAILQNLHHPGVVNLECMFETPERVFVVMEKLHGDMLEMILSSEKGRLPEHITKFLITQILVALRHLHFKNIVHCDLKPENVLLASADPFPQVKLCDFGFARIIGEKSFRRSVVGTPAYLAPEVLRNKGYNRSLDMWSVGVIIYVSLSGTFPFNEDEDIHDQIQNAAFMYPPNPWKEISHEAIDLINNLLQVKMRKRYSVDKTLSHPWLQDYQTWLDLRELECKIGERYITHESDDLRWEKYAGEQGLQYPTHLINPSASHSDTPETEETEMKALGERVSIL

[9] = molecular target: Serine/threonine-protein kinase N2 (Homo sapiens) (UniProt Q16513); experiment: Inhibition of human PRK2 assessed as residual activity at 1 uM relative to control
[10] = molecular target: MAP kinase-interacting serine/threonine-protein kinase 1 (Homo sapiens) (UniProt Q9BUB5); experiment: Inhibition of human MNK1 assessed as residual activity at 1 uM relative to control
[11] = molecular target: Homeodomain-interacting protein kinase 2 (Homo sapiens) (UniProt Q9H2X6); experiment: Inhibition of human HIPK2 assessed as residual activity at 1 uM relative to control
[12] = molecular target: Serine/threonine-protein kinase Chk2 (Homo sapiens) (UniProt O96017); experiment: Inhibition of human CHK2 assessed as residual activity at 1 uM relative to control
[13] = molecular target: Proto-oncogene tyrosine-protein kinase Src (Homo sapiens) (UniProt P12931); experiment: Inhibition of human SRC assessed as residual activity at 10 uM relative to control
[14] = molecular target: T2, Serine/threonine-protein kinase TBK1 (Homo sapiens) (UniProt Q9UHD2); experiment: Inhibition of human TBK1 assessed as residual activity at 10 uM relative to control
T2 sequence (whole entry): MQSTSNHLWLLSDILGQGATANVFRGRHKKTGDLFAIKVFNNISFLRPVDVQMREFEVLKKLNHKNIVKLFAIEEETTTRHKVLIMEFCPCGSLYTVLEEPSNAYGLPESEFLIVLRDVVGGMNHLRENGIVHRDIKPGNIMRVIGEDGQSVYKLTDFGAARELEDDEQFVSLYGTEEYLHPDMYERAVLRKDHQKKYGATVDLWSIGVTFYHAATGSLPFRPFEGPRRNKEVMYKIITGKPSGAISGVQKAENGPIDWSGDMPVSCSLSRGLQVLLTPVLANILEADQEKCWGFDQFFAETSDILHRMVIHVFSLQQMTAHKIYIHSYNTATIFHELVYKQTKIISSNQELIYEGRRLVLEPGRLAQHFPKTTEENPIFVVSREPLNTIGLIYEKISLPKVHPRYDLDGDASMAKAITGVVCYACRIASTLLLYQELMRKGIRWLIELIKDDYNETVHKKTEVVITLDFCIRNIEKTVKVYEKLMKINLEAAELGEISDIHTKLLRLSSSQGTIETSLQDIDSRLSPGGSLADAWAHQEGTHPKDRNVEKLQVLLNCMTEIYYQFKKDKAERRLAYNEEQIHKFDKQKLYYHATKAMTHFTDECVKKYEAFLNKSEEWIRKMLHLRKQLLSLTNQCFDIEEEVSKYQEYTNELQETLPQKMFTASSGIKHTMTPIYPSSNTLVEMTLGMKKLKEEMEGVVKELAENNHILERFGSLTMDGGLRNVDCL

[15] = molecular target: Myosin light chain kinase, smooth muscle (Homo sapiens) (UniProt Q15746); experiment: Inhibition of human smMLCK assessed as residual activity at 10 uM relative to control
[16] = molecular target: Serine/threonine-protein kinase N2 (Homo sapiens) (UniProt Q16513); experiment: Inhibition of human PRK2 assessed as residual activity at 10 uM relative to control
[17] = molecular target: MAP/microtubule affinity-regulating kinase 3 (Homo sapiens) (UniProt P27448); experiment: Inhibition of human MARK3 assessed as residual activity at 10 uM relative to control
[18] = molecular target: Insulin-like growth factor 1 receptor (Homo sapiens) (UniProt P08069); experiment: Inhibition of human IGF-1R assessed as residual activity at 10 uM relative to control
[19] = molecular target: 3-phosphoinositide-dependent protein kinase 1 (Homo sapiens) (UniProt O15530); experiment: Inhibition of human PDK1 assessed as residual activity at 10 uM relative to control

Proto-oncogene tyrosine-protein kinase Src (Homo sapiens), sequence (P12931 2-536 limits assumed): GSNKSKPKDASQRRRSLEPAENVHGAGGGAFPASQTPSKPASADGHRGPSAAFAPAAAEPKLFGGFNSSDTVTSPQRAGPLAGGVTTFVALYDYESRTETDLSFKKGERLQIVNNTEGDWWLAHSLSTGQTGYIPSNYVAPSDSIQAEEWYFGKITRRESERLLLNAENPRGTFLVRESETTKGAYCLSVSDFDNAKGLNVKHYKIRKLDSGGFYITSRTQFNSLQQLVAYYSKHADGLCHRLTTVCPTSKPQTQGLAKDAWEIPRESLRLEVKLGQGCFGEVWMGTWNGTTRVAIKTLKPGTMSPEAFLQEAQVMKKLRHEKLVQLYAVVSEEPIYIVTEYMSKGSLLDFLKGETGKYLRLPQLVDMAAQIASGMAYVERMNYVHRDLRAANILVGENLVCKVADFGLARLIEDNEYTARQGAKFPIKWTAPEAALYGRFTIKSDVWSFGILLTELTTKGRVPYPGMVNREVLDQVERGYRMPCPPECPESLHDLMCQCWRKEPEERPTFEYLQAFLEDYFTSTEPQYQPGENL
RAC-alpha serine/threonine-protein kinase (Homo sapiens), sequence (P31749 whole entry): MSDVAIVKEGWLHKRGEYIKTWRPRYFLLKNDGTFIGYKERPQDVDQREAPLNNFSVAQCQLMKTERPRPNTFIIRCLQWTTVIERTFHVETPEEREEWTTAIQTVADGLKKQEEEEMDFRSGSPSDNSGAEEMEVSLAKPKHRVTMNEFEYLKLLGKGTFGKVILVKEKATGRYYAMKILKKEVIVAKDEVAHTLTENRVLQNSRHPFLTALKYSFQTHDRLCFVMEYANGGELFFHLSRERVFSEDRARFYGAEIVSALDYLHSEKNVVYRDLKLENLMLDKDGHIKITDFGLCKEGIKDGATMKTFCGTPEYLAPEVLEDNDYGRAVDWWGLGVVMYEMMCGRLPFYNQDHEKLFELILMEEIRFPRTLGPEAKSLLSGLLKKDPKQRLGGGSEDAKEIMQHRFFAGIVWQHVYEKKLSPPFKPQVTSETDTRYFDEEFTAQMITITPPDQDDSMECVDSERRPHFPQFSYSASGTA
Aurora kinase B (Homo sapiens), sequence (Q96GD4 whole entry): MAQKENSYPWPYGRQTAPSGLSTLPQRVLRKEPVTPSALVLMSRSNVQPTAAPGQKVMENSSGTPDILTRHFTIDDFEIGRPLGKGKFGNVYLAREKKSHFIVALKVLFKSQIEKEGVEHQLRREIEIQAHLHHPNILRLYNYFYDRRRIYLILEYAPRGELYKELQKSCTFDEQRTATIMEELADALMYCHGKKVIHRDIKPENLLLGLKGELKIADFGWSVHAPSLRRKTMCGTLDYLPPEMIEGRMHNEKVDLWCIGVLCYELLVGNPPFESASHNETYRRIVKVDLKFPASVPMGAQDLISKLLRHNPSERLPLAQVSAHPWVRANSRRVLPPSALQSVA
Serine/threonine-protein kinase PAK 4 (Homo sapiens), sequence (O96013 whole entry, looked up): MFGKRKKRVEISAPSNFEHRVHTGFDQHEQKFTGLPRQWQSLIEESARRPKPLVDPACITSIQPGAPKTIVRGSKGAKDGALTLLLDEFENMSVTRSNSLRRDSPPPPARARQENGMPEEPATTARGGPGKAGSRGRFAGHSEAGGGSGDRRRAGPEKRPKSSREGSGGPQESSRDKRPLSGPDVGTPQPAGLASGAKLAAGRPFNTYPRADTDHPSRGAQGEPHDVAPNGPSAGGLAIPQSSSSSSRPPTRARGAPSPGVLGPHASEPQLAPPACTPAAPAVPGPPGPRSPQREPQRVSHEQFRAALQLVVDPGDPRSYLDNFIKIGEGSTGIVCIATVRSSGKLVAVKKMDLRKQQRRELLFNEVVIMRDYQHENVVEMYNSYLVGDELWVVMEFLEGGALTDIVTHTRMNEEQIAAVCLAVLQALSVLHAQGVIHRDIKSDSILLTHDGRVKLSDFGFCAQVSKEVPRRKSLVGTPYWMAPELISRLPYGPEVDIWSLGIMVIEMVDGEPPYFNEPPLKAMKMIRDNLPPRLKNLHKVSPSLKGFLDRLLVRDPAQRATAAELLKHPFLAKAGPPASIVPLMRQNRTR
Serine/threonine-protein kinase N2 (Homo sapiens), sequence (Q16513 whole entry, looked up): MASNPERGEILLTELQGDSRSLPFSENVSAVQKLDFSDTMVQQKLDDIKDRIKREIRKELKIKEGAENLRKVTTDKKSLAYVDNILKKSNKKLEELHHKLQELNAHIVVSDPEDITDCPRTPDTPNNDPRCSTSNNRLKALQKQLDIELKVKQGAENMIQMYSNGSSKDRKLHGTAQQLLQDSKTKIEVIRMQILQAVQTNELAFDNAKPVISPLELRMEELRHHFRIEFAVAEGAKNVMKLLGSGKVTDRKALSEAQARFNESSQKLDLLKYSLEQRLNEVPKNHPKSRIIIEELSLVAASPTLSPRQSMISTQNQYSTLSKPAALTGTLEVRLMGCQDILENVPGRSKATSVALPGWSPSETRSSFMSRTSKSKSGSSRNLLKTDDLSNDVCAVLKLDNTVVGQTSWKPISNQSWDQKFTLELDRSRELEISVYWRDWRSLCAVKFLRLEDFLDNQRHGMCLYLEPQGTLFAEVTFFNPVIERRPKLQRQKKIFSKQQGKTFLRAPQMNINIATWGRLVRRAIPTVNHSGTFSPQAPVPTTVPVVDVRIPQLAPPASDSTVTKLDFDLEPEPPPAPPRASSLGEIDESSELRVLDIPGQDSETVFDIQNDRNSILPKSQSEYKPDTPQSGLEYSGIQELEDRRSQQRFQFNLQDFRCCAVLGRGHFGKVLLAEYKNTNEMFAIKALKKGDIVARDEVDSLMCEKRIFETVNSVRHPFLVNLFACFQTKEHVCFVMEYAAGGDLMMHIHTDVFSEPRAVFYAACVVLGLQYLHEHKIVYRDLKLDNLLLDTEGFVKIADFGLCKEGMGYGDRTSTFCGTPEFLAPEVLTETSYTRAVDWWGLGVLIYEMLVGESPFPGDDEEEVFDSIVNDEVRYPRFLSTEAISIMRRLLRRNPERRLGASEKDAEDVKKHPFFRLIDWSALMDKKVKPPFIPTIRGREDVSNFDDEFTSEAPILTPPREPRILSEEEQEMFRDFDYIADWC
MAP kinase-interacting serine/threonine-protein kinase 1 (Homo sapiens), sequence (Q9BUB5 whole entry, looked up): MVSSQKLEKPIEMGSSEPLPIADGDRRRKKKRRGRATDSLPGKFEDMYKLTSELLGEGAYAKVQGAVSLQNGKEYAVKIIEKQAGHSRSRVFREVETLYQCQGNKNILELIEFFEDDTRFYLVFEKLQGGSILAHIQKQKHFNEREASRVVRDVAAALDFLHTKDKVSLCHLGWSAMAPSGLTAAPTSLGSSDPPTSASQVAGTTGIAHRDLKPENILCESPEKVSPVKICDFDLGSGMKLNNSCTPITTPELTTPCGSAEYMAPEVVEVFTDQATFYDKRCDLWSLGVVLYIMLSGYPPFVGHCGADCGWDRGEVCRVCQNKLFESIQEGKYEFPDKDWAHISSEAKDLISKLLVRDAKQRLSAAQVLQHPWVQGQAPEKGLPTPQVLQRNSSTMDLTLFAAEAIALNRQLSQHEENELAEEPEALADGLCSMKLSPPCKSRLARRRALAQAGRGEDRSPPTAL
Fibroblast growth factor receptor 1, sequence (P11362 22-822 limits assumed): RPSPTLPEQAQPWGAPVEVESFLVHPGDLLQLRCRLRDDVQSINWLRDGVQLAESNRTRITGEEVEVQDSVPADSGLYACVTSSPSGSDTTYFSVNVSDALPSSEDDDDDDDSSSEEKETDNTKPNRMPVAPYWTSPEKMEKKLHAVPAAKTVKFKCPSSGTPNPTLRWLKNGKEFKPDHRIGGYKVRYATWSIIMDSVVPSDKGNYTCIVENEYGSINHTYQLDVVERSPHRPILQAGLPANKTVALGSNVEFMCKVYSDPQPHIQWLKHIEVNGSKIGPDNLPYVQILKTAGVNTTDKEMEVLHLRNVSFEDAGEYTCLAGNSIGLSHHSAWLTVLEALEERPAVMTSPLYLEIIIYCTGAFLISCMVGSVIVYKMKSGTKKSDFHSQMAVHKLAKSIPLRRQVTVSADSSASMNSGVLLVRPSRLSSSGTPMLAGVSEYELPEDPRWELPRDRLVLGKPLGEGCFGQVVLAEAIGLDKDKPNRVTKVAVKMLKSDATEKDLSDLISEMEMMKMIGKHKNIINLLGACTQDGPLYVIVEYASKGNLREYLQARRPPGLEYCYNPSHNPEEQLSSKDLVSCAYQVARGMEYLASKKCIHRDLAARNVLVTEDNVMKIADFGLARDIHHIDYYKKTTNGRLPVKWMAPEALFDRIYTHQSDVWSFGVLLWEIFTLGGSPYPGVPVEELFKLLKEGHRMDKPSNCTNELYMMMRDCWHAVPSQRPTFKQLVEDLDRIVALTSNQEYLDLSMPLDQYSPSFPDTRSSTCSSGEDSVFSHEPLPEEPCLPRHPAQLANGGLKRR
Serine/threonine-protein kinase Chk2 (Homo sapiens), sequence (O96017 whole entry): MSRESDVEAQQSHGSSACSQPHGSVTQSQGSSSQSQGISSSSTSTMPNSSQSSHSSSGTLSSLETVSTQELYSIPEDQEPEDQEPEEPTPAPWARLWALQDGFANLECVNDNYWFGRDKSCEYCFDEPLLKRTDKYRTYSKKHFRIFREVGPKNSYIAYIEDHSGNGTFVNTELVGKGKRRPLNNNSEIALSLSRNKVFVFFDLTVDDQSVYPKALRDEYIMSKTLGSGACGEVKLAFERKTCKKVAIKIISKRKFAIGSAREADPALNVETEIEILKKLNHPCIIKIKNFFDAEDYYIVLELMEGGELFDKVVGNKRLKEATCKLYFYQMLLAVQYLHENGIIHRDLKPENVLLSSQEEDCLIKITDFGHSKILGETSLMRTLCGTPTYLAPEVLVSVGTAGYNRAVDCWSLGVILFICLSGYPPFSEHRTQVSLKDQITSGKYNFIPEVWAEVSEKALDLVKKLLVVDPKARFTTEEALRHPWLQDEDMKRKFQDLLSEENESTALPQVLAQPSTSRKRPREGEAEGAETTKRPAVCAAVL

Structure (SMILES)	Activity [1] [%]	Activity [2] [%]	Activity [3] [%]	Activity [4] [%]	Activity [5] [%]	Activity [6] [%]	Activity [7] [%]	Activity [8] [%]	Activity [9] [%]	Activity [10] [%]	Activity [11] [%]	Activity [12] [%]	Activity [13] [%]	Activity [14] [%]	Activity [15] [%]	Activity [16] [%]	Activity [17] [%]	Activity [18] [%]	Activity [19] [%]
CC(=O)Nc1cccc(-c2cnc3[nH]nc(C)c3c2)c1	106	51.1	51.9	94.9	54.6	68.4	85.1	108	99.9	70	72	68.5	23.8	48.2	45.6	42.2	17.9	12.5	70.4
CC(=O)Nc1nccc(-c2c(-c3ccccc3)noc2C)n1	76	115	106	100	99.6	71	93	80.7	77.6	101	98.9	89.5	91.9	105	79.3	96.5	79.2	92.5	66
CCCC(=O)Nc1n[nH]c2ncc(-c3cccnc3)cc12	97	91	79	101	68	83	71	76	81	79	72	96	72	70	62	76	62	92	98
